# Test results reported in ChEMBL document CHEMBL5390218, “Benzimidazole derivatives as tubulin polymerization inhibitors: Design, synthesis and in vitro cytotoxicity studies” (Bioorg Med Chem Lett, 2023).
# pIC50: −log10 of the molar value. Active and inactive are the calls of the source. No cut-off for these calls is given here.
# How the values were obtained:
# B16-F10 = assay: Anticancer activity against mouse B16-F10 cells assessed as inhibition in cell growth measured after 72 hrs by MTT assay; assay type: functional, cell-based; conditions: B16-F10, 72 h
# MCF7 = assay: Anticancer activity against human MCF7 cells assessed as inhibition in cell growth measured after 72 hrs by MTT assay; assay type: functional, cell-based; conditions: MCF7, 72 h
# SK-MEL-28 [1] = assay: Anticancer activity against human SK-MEL-28 cells assessed as inhibition in cell growth measured after 72 hrs by MTT assay; assay type: functional, cell-based; conditions: SK-MEL-28, 72 h
# A549 = assay: Anticancer activity against human A549 cells assessed as inhibition in cell growth measured after 72 hrs by MTT assay; assay type: functional, cell-based; conditions: A549, 72 h
# HCT-116 = assay: Anticancer activity against human HCT-116 cells assessed as inhibition in cell growth measured after 72 hrs by MTT assay; assay type: functional, cell-based; conditions: HCT-116, 72 h
# [2] = Cytotoxicity against NRK-52E cells assessed as inhibition in cell growth measured after 72 hrs by MTT assay; assay type: toxicity, cell-based; conditions: rat
# SK-MEL-28 [3] = assay: Induction of morphological changes in human SK-MEL-28 cells assessed as production of apoptotic bodies by ethidium bromide/acridine orange staining based analysis; assay type: functional, cell-based; conditions: dose 1-5 µM
# [4] = Selectivity index, ratio of IC50 for NRK-52E cells to ratio of IC50 for human HCT-116 cells; assay type: toxicity; conditions: rat (NRK-52E), NRK-52E cells versus HCT-116 cells, read-out: Selectivity Index
# [5] = Selectivity index, ratio of IC50 for NRK-52E cells to ratio of IC50 for human SK-MEL-28 cells
# [6] = Selectivity index, ratio of IC50 for NRK-52E cells to ratio of IC50 for human A549 cells; assay type: toxicity; conditions: rat (NRK-52E), NRK-52E cells versus A549 cells, read-out: Selectivity Index
# SK-MEL-28 [7] = assay: Inhibition of cell migration in human SK-MEL-28 cells at 1 to 5 uM incubated for 0 to 48 hrs by phase-contrast microscopy; assay type: functional, cell-based; conditions: dose 1-5 µM, time 0-48 hrs
# SK-MEL-28 [8] = assay: Induction of morphological changes in human SK-MEL-28 cells assessed as membrane blebbing by ethidium bromide/acridine orange staining based analysis; assay type: functional, cell-based; conditions: dose 1-5 µM
# SK-MEL-28 [9] = assay: Induction of ROS generation in human SK-MEL-28 cells by DCFDA staining based analysis; assay type: functional, cell-based; conditions: dose 1-5 µM
# SK-MEL-28 [10] = assay: Induction of morphological changes in human SK-MEL-28 cells assessed as chromatin condensation by ethidium bromide/acridine orange staining based analysis; assay type: functional, cell-based; conditions: dose 1-5 µM
# [11] = Selectivity index, ratio of IC50 for NRK-52E cells to ratio of IC50 for human MCF7 cells; assay type: toxicity; conditions: rat (NRK-52E), NRK-52E cells versus MCF7 cells, read-out: Selectivity Index
# [12] = Selectivity index, ratio of IC50 for NRK-52E cells to ratio of IC50 for mouse B16-F10 cells; assay type: toxicity; conditions: NRK-52E cells versus B16-F10 cells, read-out: Selectivity Index
# SK-MEL-28 [13] = assay: Inhibition of cell migration in human SK-MEL-28 cells at 1 to 5 uM incubated for 0 to 48 hrs by wound healing assay; assay type: functional, cell-based; conditions: dose 1-5 µM, time 0-48 hrs
# SK-MEL-28 [14] = assay: Induction of morphological changes in human SK-MEL-28 cells assessed as nuclear shrinkage at 1 to 5 uM measured after 48 hrs DAPI staining based analysis; assay type: functional, cell-based; conditions: dose 1-5 µM
# SK-MEL-28 [15] = assay: Induction of morphological changes in human SK-MEL-28 cells assessed as cell shrinkage by ethidium bromide/acridine orange staining based analysis; assay type: functional; conditions: dose 1-5 µM
# SK-MEL-28 [16] = assay: Induction of morphological changes in human SK-MEL-28 cells assessed as appearance of nuclei at 1 to 5 uM measured after 48 hrs DAPI staining based analysis; assay type: functional, cell-based; conditions: dose 1-5 µM
# SK-MEL-28 [17] = assay: Induction of morphological changes in human SK-MEL-28 cells assessed as bright pyknotic nuclei at 1 to 5 uM measured after 48 hrs DAPI staining based analysis; assay type: functional, cell-based; conditions: dose 1-5 µM
# SK-MEL-28 [18] = assay: Inhibition of colony formation in human SK-MEL-28 cells incubated for 48 hrs by crystal violet staining based colony formation assay; assay type: functional, cell-based; conditions: dose 1-5 µM
# SK-MEL-28 [19] = assay: Induction of morphological changes in human SK-MEL-28 cells assessed as bright fragmented nuclei at 1 to 5 uM measured after 48 hrs DAPI staining based analysis; assay type: functional, cell-based; conditions: dose 1-5 µM
# SK-MEL-28 [20] = assay: Induction of morphological changes in human SK-MEL-28 cells assessed as chromatin condensation at 1 to 5 uM measured after 48 hrs DAPI staining based analysis; assay type: functional, cell-based; conditions: dose 1-5 µM
Structure (SMILES),pIC50 (B16-F10),pIC50 (MCF7),pIC50 (SK-MEL-28 [1]),pIC50 (A549),pIC50 (HCT-116),IC50 at 72 h [2] [µM],further results
COC(=O)Nc1nc2cc(C(=O)c3cccs3)ccc2[nH]1 [NOCODAZOLE],5.07,5.38,5.07,5.23,5.46,–,–
COc1cc(-c2nc3cc(C)ccc3[nH]2)ccc1OCC(=O)N1CCN(c2ncccn2)CC1,5.07,4.93,5.27,5.10,5.33,> 100,–
COc1cc(-c2nc3cc(F)ccc3[nH]2)ccc1OCC(=O)N1CCN(C(=O)OC(C)(C)C)CC1,< 4.70,< 4.70,< 4.70,< 4.70,< 4.70,> 100,–
COc1cc(-c2nc3ccccc3[nH]2)ccc1OCC(=O)N1CCN(C(=O)OC(C)(C)C)CC1,< 4.70,< 4.70,< 4.70,< 4.70,< 4.70,> 100,–
COc1ccc2[nH]c(-c3ccc(OCC(=O)N4CCOCC4)c(OC)c3)nc2c1,< 4.70,< 4.70,< 4.70,< 4.70,< 4.70,> 100,–
COc1cc(-c2nc3cc(F)ccc3[nH]2)ccc1OCC(=O)N1CCCCC1,< 4.70,< 4.70,< 4.70,< 4.70,< 4.70,> 100,–
COc1ccc2[nH]c(-c3ccc(OCC(=O)N4CCc5ccccc5C4)c(OC)c3)nc2c1,5.30,4.96,5.53,5.09,5.10,20.5,–
COc1cc(-c2nc3ccccc3[nH]2)ccc1OCC(=O)N1CCCC1,< 4.70,< 4.70,< 4.70,< 4.70,< 4.70,> 100,–
COc1cc(-c2nc3cc(C)ccc3[nH]2)ccc1OCC(=O)N1CCc2ccccc21,4.81,< 4.70,< 4.70,5.16,< 4.70,> 100,–
COc1cc(-c2nc3ccccc3[nH]2)ccc1OCC(=O)N1CCN(c2ncccn2)CC1,< 4.70,< 4.70,4.92,< 4.70,< 4.70,> 100,–
COc1cc(-c2nc3cc(C)ccc3[nH]2)ccc1OCC(=O)N1CCCCC1,< 4.70,< 4.70,< 4.70,< 4.70,< 4.70,> 100,–
COc1cc(-c2nc3cc(F)ccc3[nH]2)ccc1OCC(=O)N1CCCC1,< 4.70,< 4.70,< 4.70,< 4.70,< 4.70,> 100,–
COc1cc(-c2nc3ccccc3[nH]2)ccc1OCC(=O)N1CCc2ccccc21,< 4.70,5.11,5.42,< 4.70,< 4.70,> 100,–
COc1ccc2[nH]c(-c3ccc(OCC(=O)N4CCN(c5ncccn5)CC4)c(OC)c3)nc2c1,4.90,< 4.70,5.21,5.08,< 4.70,> 100,–
COc1cc(-c2nc3ccccc3[nH]2)ccc1OCC(=O)N1CCCCC1,< 4.70,< 4.70,< 4.70,< 4.70,< 4.70,> 100,–
COc1cc(-c2nc3cc(F)ccc3[nH]2)ccc1OCC(=O)N1CCN(c2ncccn2)CC1,4.79,< 4.70,5.11,4.86,< 4.70,> 100,–
COc1ccc2[nH]c(-c3ccc(OCC(=O)N4CCCC4)c(OC)c3)nc2c1,< 4.70,< 4.70,< 4.70,< 4.70,< 4.70,> 100,–
COc1cc(-c2nc3ccccc3[nH]2)ccc1OCC(=O)N1CCc2ccccc2C1,< 4.70,< 4.70,< 4.70,< 4.70,< 4.70,> 100,–
COc1cc(-c2nc3cc(F)ccc3[nH]2)ccc1OCC(=O)N1CCOCC1,< 4.70,< 4.70,< 4.70,< 4.70,< 4.70,> 100,–
COc1cc(-c2nc3cc(C)ccc3[nH]2)ccc1OCC(=O)N1CCc2ccccc2C1,5.32,5.23,5.59,5.26,5.22,51.9,Activity (SK-MEL-28 [3]): Dose-Dependent Effect; selectivity ratio [4]: 8.6; Selectivity Index [5]: 20.3; selectivity ratio [6]: 9.4; inhibition (SK-MEL-28 [7]): Active; Activity (SK-MEL-28 [8]): Dose-Dependent Effect; Activity (SK-MEL-28 [9]): Dose-Dependent Effect; Activity (SK-MEL-28 [10]): Dose-Dependent Effect; selectivity ratio [11]: 8.8; selectivity ratio [12]: 10.9; inhibition (SK-MEL-28 [13]): Active; Activity (SK-MEL-28 [14]): Active; Activity (SK-MEL-28 [15]): Dose-Dependent Effect; Activity (SK-MEL-28 [16]): Active; Activity (SK-MEL-28 [17]): Active; inhibition (SK-MEL-28 [18]): Dose-Dependent Effect; Activity (SK-MEL-28 [19]): Active; Activity (SK-MEL-28 [20]): Active
COc1cc(-c2nc3cc(F)ccc3[nH]2)ccc1OCC(=O)N1CCc2ccccc2C1,< 4.70,4.83,5.07,< 4.70,5.00,> 100,–
COc1cc(-c2nc3cc(C)ccc3[nH]2)ccc1OCC(=O)N1CCOCC1,< 4.70,< 4.70,< 4.70,< 4.70,< 4.70,> 100,–
COc1ccc2[nH]c(-c3ccc(OCC(=O)N4CCN(C(=O)OC(C)(C)C)CC4)c(OC)c3)nc2c1,< 4.70,< 4.70,< 4.70,< 4.70,< 4.70,> 100,–
COc1cc(-c2nc3cc(C)ccc3[nH]2)ccc1OCC(=O)N1CCCC1,< 4.70,< 4.70,< 4.70,< 4.70,< 4.70,> 100,–
COc1ccc2[nH]c(-c3ccc(OCC(=O)N4CCCCC4)c(OC)c3)nc2c1,< 4.70,< 4.70,< 4.70,< 4.70,< 4.70,> 100,–
COc1ccc2[nH]c(-c3ccc(OCC(=O)N4CCc5ccccc54)c(OC)c3)nc2c1,4.90,5.11,5.48,5.09,5.08,> 100,–
COc1cc(-c2nc3ccccc3[nH]2)ccc1OCC(=O)N1CCOCC1,< 4.70,< 4.70,< 4.70,< 4.70,< 4.70,> 100,–
